Results published in patent publication US20250352608A1, “POLYPEPTIDES HAVING ANTI-INFLAMMATORY EFFECTS AND USES THEREOF” (OneSkin, Inc., priority 2020, published 2025).
“Also recorded” adds a separate entry of the source. One block for each sequence: values may come before it. Ends that are not written are not given here.

Assays:
[1] = tested on: pAkt S473; assay: Akt S473 phosphorylation western blot in skin equivalents; format: cell-based, human; conditions: 1p M, 5 days
Method: (§1) In order to shed light into the mechanism of action of Peptide 14 and similar Peptide 13, Akt S473 phosphorylation (FIG. 8, panel A), senescence associated β-galactosidase staining (FIG. 8, panel B), as well as mRNA expression (FIG. 8, panel C) were investigated. For Akt S473 phosphorylation analysis using western blotting, human primary fibroblasts and keratinocytes were used. These cells were used to build human skin equivalents, which were kept in a 5% CO2, 37° C. and 95% humidity atmosphere air liquid interface. Then, skin equivalents were treated with 1p M of either Peptide 14 or Peptide 13 for 5 days, and protein analysis was performed on the skin equivalents. Protein was isolated and quantified. Equal amounts of protein were loaded in polyacrylamide gels and transferred into a nitrocellulose membrane. […] Relative pAkt S473/GAPDH signal was compared between treated and non-treated samples. For senescence associated B-galactosidase staining experiments, fibroblasts were used. […] Total RNA was isolated, samples were reverse transcribed, and mRNA expression of GAPDH, sirtuin 6 (SIRT6), BLM, and exonuclease 1 (EXO1) genes were determined using qPCR. […] CT values were analyzed using the 2^−ΔΔCt method. […] Data was analyzed using a T-test. Statistical significance was determined as p values equal or lower than 0.05 (FIG. 8).

[2] = tested on: fibroblasts; assay: SA B-galactosidase staining after UVB (Example 8); format: cell-based, human; conditions: 48 hours after 2 x 0.05 J/cm^2
Method: as §1

[3] = tested on: 3D skin equivalent (elder donors); assay: Relative mRNA expression in 3D skin equivalents versus Retinoic Acid; format: cell-based, human; conditions: 1p M peptide vs 20 μM Retinoic Acid
Method: 3D skin equivalent sections of samples built with cells from elder donors ([…]) were treated with 1p M Peptide 14 or Peptide 13, or 20 μM Retinoic Acid (RA) and assessed for the effect of the various treatments of various markers of senescence, aging, and health.
Data are presented as 2-ddCt normalized to GAPDH and untreated control. *p<0.05. Peptide 13 and Peptide 14-treated samples generally had similar relative mRNA expression levels for p16, BLIMP1, ZYG11B, IL-8, and Ki-67 in the epidermal layer, and for p16, MMP1, HAS2, IL-8, and Ki-67 in the dermal layer. Peptide 13 and Peptide 14-treated samples generally had lower relative mRNA expression levels than RA-treated samples for p16, BLIMP1, ZYG11B, IL-8, in the epidermal layer and for p16, MMP1, IL-8, and Ki-67 in the dermal layer. Peptide 13 and Peptide 14-treated samples generally had higher relative mRNA expression levels than RA-treated samples for Ki-67 in the epidermal layer and for HAS2 for the dermal layer. Peptide 13 and Peptide 14-treated samples had similar relative mRNA expression levels as RA-treated samples for ZIC1 and Ki-67 for dermal layer.

[4] = tested on: human skin equivalents (donors); assay: Histology score of human skin equivalents (Example 16); format: cell-based; conditions: 0.01% w/v (or 1 μM), 5 days; control 21.00
Method: To test the effect of Peptide 13 and Peptide 14 treatment on human skin models and the skin morphology, human primary fibroblasts and keratinocytes isolated from healthy elder donors were used to build human skin equivalents. The skin equivalents were treated with 0.01% w/v (or 1 μM) of Peptide 13 or Peptide 14 for 5 days. The negative controls were treated with formulation only. After the 5-day culture, the skin equivalents were analyzed for epidermal thickness, which was quantified according to total epidermal area. Quality assessment based several parameters was performed by blind analysts. […] A minimal score of 19 was required for batch use. This score was validated internally and shown to decrease with age/senescence of the skin equivalents or cultured cells. Three independent experiments were performed with three technical replicates. Data were analyzed using a t-test. Statistical significance was determined as p-values equal or lower than 0.05. The statistically significant p-values are noted by * for p<0.05; ** for p<0.01; *** for p<0.001; **** for p<0.0001 between the groups.

[5] = tested on: Caenorhabditis elegans; assay: C. elegans healthspan and lifespan; format: in vivo; conditions: at the concentrations tested (1 μM, 2 μM)
Method: Senotherapeutic strategies can be linked to healthspan and lifespan extension in vivo. In order to assess whether Peptide 14 promotes extended healthspan and lifespan, Caenorhabditis elegans worms were used. Peptide 14 was added in the worm media (M9 buffer media) at different concentrations of 1 μM or 2 μM. Negative control worms received vehicle only. Two healthspan parameters were assessed i) pharyngeal pumping and ii) worm movement. Lifespan was also determined. For pharyngeal pumping analysis, 15 worms had their pharynx movement (pumping) observed daily and counted for 20 seconds. This experiment was repeated 3 times, by 2 different blind observers, employing different populations of animals at different days. Statistical difference was detected by analyzing each individual time point by One-Way ANOVA and Dunnet's post hoc test. All groups were compared with the H2O group. For worm movement analysis, the basic movement of C. elegans, also called thrashing, was measured daily for 15 worms. […] Statistical difference was detected by analyzing each individual time point by One-Way ANOVA and Dunnet's post hoc, and all groups were compared with the H2O group. […] The average lifespan was measured. Statistical difference was detected by analyzing each individual time point by One-Way ANOVA and Dunnet's post hoc, and all groups were compared with the H2O group (FIG. 15).

[6] = tested on: U-937 macrophages; conditions: 3.12 μM, absence or presence of 0.5 μg/mL LPS
Text: In some cases, monocytes and macrophages may be involved in inflammation of various skin disorders. In order to assess the effect of Peptide 14 on inflammation, an in vitro model of inflammation using monocytes and macrophages was used to study the effect of direct culture of the Peptide 14 with such cells. Cells from the U-937 cell line (Banco de Células do Rio de Janeiro—BCRJ cat. 0242) were used for experiments. According to BCRJ, the U-937 cell line was derived by Sundstrom and Nilsson in 1974 from malignant cells obtained from the pleural effusion of a patient with histiocytic lymphoma. Also, studies since 1979 have shown that U-937 cells can be induced to terminal monocytic differentiation by supernatants from human mixed lymphocyte cultures or phorbol myristic acid (PMA) stimulation.

[7] = tested on: Human primary fibroblasts isolated from 3 healthy chronologically aged (elder) donors; assay: 3-week exposure: senescence and proliferation; format: cell-based; conditions: 3.12 μM, days 7-28
Method: Human primary fibroblasts isolated from 3 healthy chronologically aged (elder) donors were used. These cells were cultured in DMEM (Dulbecco's Modified Eagle's Medium) supplemented with 10% v.v. fetal bovine serum (FBS), and 1% v.v. of penicillin/streptomycin solution (1,000 U·mL-1). Cells were kept in a 5% CO2, 37° C. and 95% humidity atmosphere. After expansion, these cells were seeded in T-75 flasks (250,000 cells per flask) and, 6 hours after plating, were incubated for 3 weeks (21 days) with Peptide 14 at 3.12 μM. A negative control comprised untreated cells, which received vehicle only. Day 0 was defined as the day cells started to be treated with Peptide 14. No Peptide 14 treatment was performed between days 21 and 28. Weekly, cellular senescence was assessed according to senescence associated β-galactosidase staining levels. Data was normalized to untreated group and plotted (FIG. 4, panel A). Cellular proliferation was also determined weekly. At days 7, 14, 21, and 28, cells were trypsinized and counted (FIG. 4, panel B). After counting, 250,000 cells were plated in new T-75 flasks. Three independent experiments (biological replicates) including three technical replicates were performed. Data was analyzed using T-test. Statistical significance was determined as p values equal or lower than 0.05.

[8] = tested on: peripheral blood mononuclear cells (PBMCs); assay: PBMC viability / toxicity (MTT); format: cell-based, human; conditions: 1.56 μM to 150 μM
Method: T cells may be involved in inflammation of various skin disorders. […] This study was approved by an IRB board. PBMCs were obtained from healthy volunteers. After isolation, the PBMCs were maintained in 96 wells and treated with different concentrations of Peptide 14 (1.56 μM to 150 μM) in order to assess toxicity of Peptide 14 to the PBMCs.
The viability and proliferation of PBMCs were analyzed by MTT assay. Briefly, after 5 days of treatment, the cells were incubated with […] MTT reagent for 4 hours. Then, 100 μL of DMSO was added into each well, and the absorbance was detected at 595 nm. Data was presented as percentage of proliferation/viability normalized to the negative control of untreated PBMCs (100% viability/proliferation).

[9] = tested on: human primary fibroblasts isolated from 3 healthy donors; assay: UVB-induced senescence; format: cell-based; conditions: 5 μM, 48 hours
Method: Cellular senescence may be caused by several different stimuli. In order to assess whether Peptide 14 was effective against UVB-induced and chemically-induced senescence, human primary fibroblasts isolated from 3 healthy donors were used. These cells were cultured in DMEM (Dulbecco's Modified Eagle's Medium) supplemented with 10% v.v. fetal bovine serum (FBS), and 1% v.v. of penicillin/streptomycin solution (1,000 U mL-1). Cells were kept in a 5% CO2, 37° C. and 95% humidity atmosphere. After expansion, these cells were seeded in 96-well plates (4,000 cells per well) and, 6 hours after plating, were submitted to either etoposide (20 μM) treatment for 24 hours, or exposed twice to 0.05 J/cm^2 of UVB radiation. […] After incubation, relative cellular senescence (assessed by the activity of senescence associated β-galactosidase staining relative to untreated control) was analyzed and plotted in column graphs. ATRX foci were also assessed following ATRX immunofluorescence staining. Graphs were built using the average ATRX foci detected per nuclei. […] Data was analyzed using with either t-test or ANOVA followed by a Bonferroni post-hoc test. Statistical significance was determined as p-values equal or lower than 0.05 (FIG. 6).

SA B-galactosidase staining in UVB-exposed samples [2]: decreased staining
relative mRNA Ki-67, dermal layer, vs RA-treated samples [3]: lower; also recorded: similar
relative mRNA Ki-67, epidermal layer, vs RA-treated samples [3]: higher
Sequence: ATAKAWLKGI [Peptide 13]
pAkt S473, dermal samples [1]: decreased
relative mRNA BLIMP1, epidermal layer, vs RA-treated samples [3]: lower
relative mRNA HAS2, dermal layer, vs RA-treated samples [3]: higher
relative mRNA IL-8, dermal layer, vs RA-treated samples [3]: lower
relative mRNA IL-8, epidermal layer, vs RA-treated samples [3]: lower
relative mRNA MMP1, dermal layer, vs RA-treated samples [3]: lower
relative mRNA ZIC1 vs RA-treated samples [3]: similar
relative mRNA ZYG11B, epidermal layer, vs RA-treated samples [3]: lower
relative mRNA p16, dermal layer, vs RA-treated samples [3]: lower
relative mRNA p16, epidermal layer, vs RA-treated samples [3]: lower
mean of histology scores (maximum 28) [4]: 23.44

Sequence: ETAKHWLKGI [Peptide 14, ETAKHWLKGI]
toxicity to C. elegans (worm movement) [5]: not toxic
cell toxicity to U-937 macrophages [6]: nor any detectable cell toxicity
cell viability vs untreated control U-937 macrophages [6]: did not result in lower cell viabilities
cell proliferation vs untreated control [7]: No significant differences
cell toxicity to PBMCs [8]: nor any detectable cell toxicity
cell viability vs untreated control PBMCs [8]: did not result in lower cell viabilities
cell number after UVB [9]: did not significantly alter cell number
